Key:
[1] = The drug is tested on Bifidobacterium longum subsp. Infantis strain: CCUG52486 for biotransformation. The drug concentrations were measured before and after a 12-h incubation by liquid-chromatography-coupled mass spectrometry (LC–MS); conditions: 2 µM
[2] = enterocloster bolteae, 12 h, 2 µM
Description: The drug is tested on Clostridium bolteae strain: ATCCBAA-613 for biotransformation. The drug concentrations were measured before and after a 12-h incubation by liquid-chromatography-coupled mass spectrometry (LC–MS)

[3] = The drug is tested on Edwardsiella tarda strain: ATCC23685 for biotransformation. The drug concentrations were measured before and after a 12-h incubation by liquid-chromatography-coupled mass spectrometry (LC–MS); conditions: 2 µM
[4] = The drug is tested on Providencia stuartii strain: ATCC25827 for biotransformation. The drug concentrations were measured before and after a 12-h incubation by liquid-chromatography-coupled mass spectrometry (LC–MS); conditions: 2 µM
[5] = bacteroides thetaiotaomicron, 12 h, 2 µM
Description: The drug is tested on Bacteroides thetaiotaomicron strain: 7330 for biotransformation. The drug concentrations were measured before and after a 12-h incubation by liquid-chromatography-coupled mass spectrometry (LC–MS)

[6] = bacteroides fragilis, 12 h, 2 µM
Description: The drug is tested on Bacteroides fragilis strain: DS-208 for biotransformation. The drug concentrations were measured before and after a 12-h incubation by liquid-chromatography-coupled mass spectrometry (LC–MS)

[7] = bacteroides intestinalis, 12 h, 2 µM
Description: The drug is tested on Bacteroides intestinalis strain: DSM17393 for biotransformation. The drug concentrations were measured before and after a 12-h incubation by liquid-chromatography-coupled mass spectrometry (LC–MS)

[8] = The drug is tested on Bacteroides sp. WH2 strain: WH2 for biotransformation. The drug concentrations were measured before and after a 12-h incubation by liquid-chromatography-coupled mass spectrometry (LC–MS); conditions: bacteroides sp. wh2, 12 h, 2 µM
[9] = The drug is tested on Bacteroides caccae strain: ATCC43185 for biotransformation. The drug concentrations were measured before and after a 12-h incubation by liquid-chromatography-coupled mass spectrometry (LC–MS); conditions: 2 µM
[10] = The drug is tested on Bacteroides pectinophilus strain: ATCC43243 for biotransformation. The drug concentrations were measured before and after a 12-h incubation by liquid-chromatography-coupled mass spectrometry (LC–MS); conditions: 2 µM
[11] = The drug is tested on Bacteroides cellulosilyticus strain: DSM14838 for biotransformation. The drug concentrations were measured before and after a 12-h incubation by liquid-chromatography-coupled mass spectrometry (LC–MS); conditions: 2 µM
[12] = The drug is tested on Collinsella intestinalis strain: DSM13280 for biotransformation. The drug concentrations were measured before and after a 12-h incubation by liquid-chromatography-coupled mass spectrometry (LC–MS); conditions: 2 µM
[13] = bacteroides stercoris, 12 h, 2 µM
Description: The drug is tested on Bacteroides stercoris strain: ATCC43183 for biotransformation. The drug concentrations were measured before and after a 12-h incubation by liquid-chromatography-coupled mass spectrometry (LC–MS)

[14] = The drug is tested on Eubacterium rectale strain: ATCC33656 for biotransformation. The drug concentrations were measured before and after a 12-h incubation by liquid-chromatography-coupled mass spectrometry (LC–MS); conditions: agathobacter rectalis, 2 µM
[15] = The drug is tested on Bacteroides uniformis strain: ATCC8492 for biotransformation. The drug concentrations were measured before and after a 12-h incubation by liquid-chromatography-coupled mass spectrometry (LC–MS); conditions: 2 µM
[16] = anaerostipes sp., 12 h, 2 µM
Description: The drug is tested on Anaerostipes sp. strain: fecal isolate for biotransformation. The drug concentrations were measured before and after a 12-h incubation by liquid-chromatography-coupled mass spectrometry (LC–MS)

[17] = The drug is tested on Enterobacter cancerogenus strain: ATCC35316 for biotransformation. The drug concentrations were measured before and after a 12-h incubation by liquid-chromatography-coupled mass spectrometry (LC–MS); conditions: 2 µM
[18] = parabacteroides johnsonii, 12 h, 2 µM
Description: The drug is tested on Parabacteroides johnsonii strain: DSM18315 for biotransformation. The drug concentrations were measured before and after a 12-h incubation by liquid-chromatography-coupled mass spectrometry (LC–MS)

[19] = The drug is tested on Bacteroides fragilis strain: ATCC43859 for biotransformation. The drug concentrations were measured before and after a 12-h incubation by liquid-chromatography-coupled mass spectrometry (LC–MS); conditions: 2 µM
[20] = bacteroides eggerthii, 12 h, 2 µM
Description: The drug is tested on Bacteroides eggerthii strain: DSM20697 for biotransformation. The drug concentrations were measured before and after a 12-h incubation by liquid-chromatography-coupled mass spectrometry (LC–MS)

[21] = The drug is tested on Clostridium spiroforme strain: DSM1552 for biotransformation. The drug concentrations were measured before and after a 12-h incubation by liquid-chromatography-coupled mass spectrometry (LC–MS); conditions: thomasclavelia spiroformis, 2 µM
[22] = bacteroides fragilis, 12 h, 2 µM; remark: listed apart in the source
Description: The drug is tested on Bacteroides fragilis strain: NCTC 9343 for biotransformation. The drug concentrations were measured before and after a 12-h incubation by liquid-chromatography-coupled mass spectrometry (LC–MS)

[23] = The drug is tested on Bacteroides fragilis strain: HMW615 for biotransformation. The drug concentrations were measured before and after a 12-h incubation by liquid-chromatography-coupled mass spectrometry (LC–MS); conditions: 2 µM
[24] = The drug is tested on Bacteroides fragilis strain: HMW610 for biotransformation. The drug concentrations were measured before and after a 12-h incubation by liquid-chromatography-coupled mass spectrometry (LC–MS); conditions: 2 µM
[25] = The drug is tested on Providencia rettgeri strain: DSM1131 for biotransformation. The drug concentrations were measured before and after a 12-h incubation by liquid-chromatography-coupled mass spectrometry (LC–MS); type: ADME; design: dose 2 uM, timepoint 0 vs 12 hours; conditions: 2 µM
[26] = limosilactobacillus reuteri cf48-3a, 12 h, 2 µM
Description: The drug is tested on Lactobacillus reuteri CF48-3A strain: BEI HM-102 for biotransformation. The drug concentrations were measured before and after a 12-h incubation by liquid-chromatography-coupled mass spectrometry (LC–MS)

[27] = The drug is tested on Anaerotruncus colihominis strain: DSM17241 for biotransformation. The drug concentrations were measured before and after a 12-h incubation by liquid-chromatography-coupled mass spectrometry (LC–MS); conditions: 2 µM
[28] = The drug is tested on Clostridium asparagiforme strain: DSM15981 for biotransformation. The drug concentrations were measured before and after a 12-h incubation by liquid-chromatography-coupled mass spectrometry (LC–MS); type: ADME; design: dose 2 uM, timepoint 0 vs 12 hours; conditions: enterocloster asparagiformis, 2 µM
[29] = The drug is tested on Clostridium ramosum strain: DSM1402 for biotransformation. The drug concentrations were measured before and after a 12-h incubation by liquid-chromatography-coupled mass spectrometry (LC–MS); conditions: thomasclavelia ramosa, 2 µM
[30] = The drug is tested on Clostridium symbiosum strain: ATCC14940 for biotransformation. The drug concentrations were measured before and after a 12-h incubation by liquid-chromatography-coupled mass spectrometry (LC–MS); conditions: 2 µM
[31] = The drug is tested on Eubacterium hallii strain: DSM3353 for biotransformation. The drug concentrations were measured before and after a 12-h incubation by liquid-chromatography-coupled mass spectrometry (LC–MS); conditions: anaerobutyricum hallii, 2 µM
[32] = bacteroides fragilis, 12 h, 2 µM; remark: listed apart in the source
Description: The drug is tested on Bacteroides fragilis strain: 3397 (T10) for biotransformation. The drug concentrations were measured before and after a 12-h incubation by liquid-chromatography-coupled mass spectrometry (LC–MS)

[33] = The drug is tested on Bacteroides finegoldii strain: DSM17565 for biotransformation. The drug concentrations were measured before and after a 12-h incubation by liquid-chromatography-coupled mass spectrometry (LC–MS); conditions: 2 µM
[34] = segatella copri, 12 h, 2 µM
Description: The drug is tested on Prevotella copri strain: DSM18205 for biotransformation. The drug concentrations were measured before and after a 12-h incubation by liquid-chromatography-coupled mass spectrometry (LC–MS)

[35] = The drug is tested on Subdoligranulum variabile strain: DSM15176 for biotransformation. The drug concentrations were measured before and after a 12-h incubation by liquid-chromatography-coupled mass spectrometry (LC–MS); conditions: 2 µM
[36] = The drug is tested on Blautia luti strain: DSM14534 for biotransformation. The drug concentrations were measured before and after a 12-h incubation by liquid-chromatography-coupled mass spectrometry (LC–MS); type: ADME; design: dose 2 uM, timepoint 0 vs 12 hours; conditions: 2 µM
[37] = The drug is tested on Collinsella aerofaciens strain: ATCC25986 for biotransformation. The drug concentrations were measured before and after a 12-h incubation by liquid-chromatography-coupled mass spectrometry (LC–MS); conditions: 2 µM
[38] = bifidobacterium adolescentis, 12 h, 2 µM
Description: The drug is tested on Bifidobacterium adolescentis strain: ATCC 15703 for biotransformation. The drug concentrations were measured before and after a 12-h incubation by liquid-chromatography-coupled mass spectrometry (LC–MS)

[39] = The drug is tested on Anaerococcus hydrogenalis strain: DSM7454 for biotransformation. The drug concentrations were measured before and after a 12-h incubation by liquid-chromatography-coupled mass spectrometry (LC–MS); conditions: 2 µM
[40] = parabacteroides distasonis, 12 h, 2 µM
Description: The drug is tested on Parabacteroides distasonis strain: ATCC8503 for biotransformation. The drug concentrations were measured before and after a 12-h incubation by liquid-chromatography-coupled mass spectrometry (LC–MS)

[41] = clostridioides difficile, 12 h, 2 µM
Description: The drug is tested on Clostridium difficile strain: 120 for biotransformation. The drug concentrations were measured before and after a 12-h incubation by liquid-chromatography-coupled mass spectrometry (LC–MS)

[42] = The drug is tested on Clostridium scindens strain: ATCC35704 for biotransformation. The drug concentrations were measured before and after a 12-h incubation by liquid-chromatography-coupled mass spectrometry (LC–MS); conditions: 2 µM
[43] = The drug is tested on Clostridium hathewayi strain: DSM13479 for biotransformation. The drug concentrations were measured before and after a 12-h incubation by liquid-chromatography-coupled mass spectrometry (LC–MS); conditions: hungatella hathewayi, 2 µM
[44] = bacteroides thetaiotaomicron, 12 h, 2 µM; remark: listed apart in the source
Description: The drug is tested on Bacteroides thetaiotaomicron strain: 3731 for biotransformation. The drug concentrations were measured before and after a 12-h incubation by liquid-chromatography-coupled mass spectrometry (LC–MS)

[45] = The drug is tested on Bifidobacterium ruminantium strain: fecal isolate for biotransformation. The drug concentrations were measured before and after a 12-h incubation by liquid-chromatography-coupled mass spectrometry (LC–MS); conditions: 2 µM

## CC(C)OC(=O)C(C)(C)Oc1ccc(C(=O)c2ccc(Cl)cc2)cc1 [FENOFIBRATE]
[1]
  Bacterial Biotransformation: Compound NOT metabolized
[2]
  Bacterial Biotransformation: Compound NOT metabolized
[3]
  Bacterial Biotransformation: Compound NOT metabolized
[4]
  Bacterial Biotransformation: Compound NOT metabolized
[5]
  Bacterial Biotransformation: Compound NOT metabolized
[6]
  Bacterial Biotransformation: Compound NOT metabolized
[7]
  Bacterial Biotransformation: Compound NOT metabolized
[8]
  Bacterial Biotransformation: Compound NOT metabolized
[9]
  Bacterial Biotransformation: Compound NOT metabolized
[10]
  Bacterial Biotransformation: Compound metabolized
[11]
  Bacterial Biotransformation: Compound NOT metabolized
[12]
  Bacterial Biotransformation: Compound NOT metabolized
[13]
  Bacterial Biotransformation: Compound NOT metabolized
[14]
  Bacterial Biotransformation: Compound NOT metabolized
[15]
  Bacterial Biotransformation: Compound metabolized
[16]
  Bacterial Biotransformation: Compound metabolized
[17]
  Bacterial Biotransformation: Compound NOT metabolized
[18]
  Bacterial Biotransformation: Compound metabolized
[19]
  Bacterial Biotransformation: Compound NOT metabolized
[20]
  Bacterial Biotransformation: Compound metabolized
[21]
  Bacterial Biotransformation: Compound NOT metabolized
[22]
  Bacterial Biotransformation: Compound metabolized
[23]
  Bacterial Biotransformation: Compound NOT metabolized
[24]
  Bacterial Biotransformation: Compound NOT metabolized
[25]
  Bacterial Biotransformation: Compound NOT metabolized
[26]
  Bacterial Biotransformation: Compound NOT metabolized
[27]
  Bacterial Biotransformation: Compound metabolized
[28]
  Bacterial Biotransformation: Compound metabolized
[29]
  Bacterial Biotransformation: Compound NOT metabolized
[30]
  Bacterial Biotransformation: Compound NOT metabolized
[31]
  Bacterial Biotransformation: Compound NOT metabolized
[32]
  Bacterial Biotransformation: Compound NOT metabolized
[33]
  Bacterial Biotransformation: Compound NOT metabolized
[34]
  Bacterial Biotransformation: Compound metabolized
[35]
  Bacterial Biotransformation: Compound NOT metabolized
[36]
  Bacterial Biotransformation: Compound metabolized
[37]
  Bacterial Biotransformation: Compound NOT metabolized
[38]
  Bacterial Biotransformation: Compound NOT metabolized
[39]
  Bacterial Biotransformation: Compound NOT metabolized
[40]
  Bacterial Biotransformation: Compound NOT metabolized
[41]
  Bacterial Biotransformation: Compound metabolized
[42]
  Bacterial Biotransformation: Compound NOT metabolized
[43]
  Bacterial Biotransformation: Compound metabolized
[44]
  Bacterial Biotransformation: Compound NOT metabolized
[45]
  Bacterial Biotransformation: Compound metabolized

Source: ChEMBL document CHEMBL5303573, “Mapping human microbiome drug metabolism by gut bacteria and their genes” (Nature, 2019)
